Results: patent US10479819B2 (priority 2014, dated 2019)
Starred links: 1 amine or outer side, 2 acyl side, 3 side chain; linkers in the order of their positions; H or OH if unused. Non-standard residues stand in square brackets, D forms with d. Residues, ends and D or L forms follow the SMILES beside them. Groups on a side chain read outwards from the residue. *: point of attachment. C18 diacid = O=C(O)CCCCCCCCCCCCCCCCC(=O)*; γGlu = O=C(O)[C@H](CCC(=O)[*:2])N[*:1]; PEG2 = NCCOCCOCCC(=O)O; Aib = CC(C)(N)C(=O)O

Key:
[1] = Pharmacokinetic analysis after IV or SC administration in male CD1 mice; conditions: for Tmax / half-life: iv
Protocol: Pharmacokinetic parameters of the drugs were calculated by methods of model dependence (for data obtained from IV) and model independence (data obtained from SC).

male C57B1/6J mice = experiment: Oral glucose tolerance test in male C57B1/6J mice; assay type: in vivo; conditions: 250 μg/kg; for AUC of blood glucose in all four OGTT curve periods (0-480 min) compared with carrier (PBS): P<0.05; for effect on oral glucose tolerance: male C57B1/6J mice
Protocol: 12-16 week-old male C57B1/6J mice (Nanjing University model animal research center) were randomly divided into groups 8 in each group, according to similar blood glucose (assessed by the blood samples obtained from the tail tip). After fasting (for 6 hours), the animals were administrated, and about 4 hours later, initial blood samples (fasting blood glucose level) were taken. Subsequently, the animals were administrated with an oral dose of glucose, and then put back into their cages (t=0). Blood glucose was measured at t=15 minutes, t=30 minutes, t=60 minutes, t=90 minutes and t=120 minutes. And then the animals were administrated with an oral dose of glucose again, and blood glucose was tracked until 8 hours.

human GLP-1R = biological target: T1, human GLP-1R (Homo sapiens, UniProt P43220); experiment: In vitro activity on GLP-1R, CRE-luciferase HEK-293 cells; assay type: cell-based; conditions: for GLP-1R/GCGR: ratio of EC50 GLP-1R to EC50 GCGR
T1 construct: expressed in transfected cells
T1 sequence (P43220 24-463): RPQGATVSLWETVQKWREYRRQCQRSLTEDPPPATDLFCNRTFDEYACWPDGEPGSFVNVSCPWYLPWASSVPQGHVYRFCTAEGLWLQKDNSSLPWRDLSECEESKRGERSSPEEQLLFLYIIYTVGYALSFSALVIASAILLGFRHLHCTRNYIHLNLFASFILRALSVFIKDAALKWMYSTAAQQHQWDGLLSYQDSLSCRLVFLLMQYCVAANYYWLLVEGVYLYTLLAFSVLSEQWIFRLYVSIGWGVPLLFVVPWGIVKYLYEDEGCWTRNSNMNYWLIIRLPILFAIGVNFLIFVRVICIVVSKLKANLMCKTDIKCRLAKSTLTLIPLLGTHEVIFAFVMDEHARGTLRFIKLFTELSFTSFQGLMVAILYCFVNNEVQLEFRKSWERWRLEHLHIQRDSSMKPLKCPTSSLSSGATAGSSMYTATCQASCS
Protocol: 5000 of HEK-293 cells, which are used in CRE-luciferase system and express human GCGR or GLP-1R stably, were inoculated into 384 well plates according to […] DMEM/10% FBS media/well. […] After incubation, […] of luciferase reagent was added directly to each plate and mixed gently for 2 minutes. The plates were placed into an Elmer Perkin plate reader for reading. Concentration curve of the compound was made by drawing software Prism 5, and the EC50 value was calculated.

DIO mice = experiment: Body weight reduction in DIO (obese) mice; assay type: in vivo; conditions: 250 μg/kg SC daily, day 11 to day 30, DIO mice
Source text: Forty 25-week-old DIO mice (Nanjing University model animal research center) were randomly divided into five groups (compound 4, 5, 6, 7, and normal saline group), 8 in each group, having no difference in the basis weight of each group.

Row | Molecule | clinical adverse effect ([1]; IV or SC route, male CD1 mice) | Tmax ([1]; mouse, in vivo) [h] | half-life ([1]; mouse, in vivo) [h] | AUC of blood glucose in all four OGTT curve periods (0-480 min) compared with carrier (PBS) (male C57B1/6J mice) | effect on oral glucose tolerance (male C57B1/6J mice) | EC50 (human GLP-1R) [nM] | GLP-1R/GCGR (human GLP-1R) | weight loss (DIO mice) | body weight compared with normal saline group (DIO mice; P<0.05) | clinical adverse effect ([1]; mouse, in vivo) | peak time ([1]; mouse, in vivo, sc)
1 | CC(C)C[C@H](NC(=O)[C@H](CC(C)C)NC(=O)[C@H](Cc1c[nH]c2ccccc12)NC(=O)[C@H](CCC(N)=O)NC(=O)[C@@H](NC(=O)[C@H](Cc1ccccc1)NC(=O)[C@H](CC(=O)O)NC(=O)[C@H](CCC(N)=O)NC(=O)[C@H](C)NC(=O)[C@H](CCCNC(=N)N)NC(=O)[C@H](CCCNC(=N)N)NC(=O)C(C)(C)NC(=O)[C@H](CC(=O)O)NC(=O)[C@H](CC(C)C)NC(=O)[C@H](Cc1ccc(O)cc1)NC(=O)[C@H](CCCCN)NC(=O)[C@H](CO)NC(=O)[C@H](CCCCNC(=O)CCOCCOCCNC(=O)CCOCCOCCNC(=O)CC[C@H](NC(=O)CCCCCCCCCCCCCCCCC(=O)O)C(=O)O)NC(=O)[C@H](CC(=O)O)NC(=O)[C@H](CO)NC(=O)[C@@H](NC(=O)[C@H](Cc1ccccc1)NC(=O)[C@@H](NC(=O)CNC(=O)[C@H](CCC(N)=O)NC(=O)C(C)(C)NC(=O)[C@@H](N)Cc1c[nH]cn1)[C@@H](C)O)[C@@H](C)O)C(C)C)C(=O)N[C@@H](CC(=O)O)C(=O)NCC(=O)NCC(=O)N1CCC[C@H]1C(=O)N[C@@H](CO)C(=O)N[C@@H](CO)C(=O)NCC(=O)N[C@@H](C)C(=O)N1CCC[C@H]1C(=O)N1CCC[C@H]1C(=O)N1CCC[C@H]1C(=O)N[C@@H](CO)C(N)=O [Compound 22] (H-H[Aib]QGTFTSDK([PEG2-PEG2-γGlu-C18 diacid])SKYLD[Aib]RRAQDFVQWLLDGGPSSGAPPPS-NH2) | no clinical adverse effect | ~12 | 4 to 6 | significantly decreased | significantly reduced the oral glucose tolerance | 0.06 | 0.19 | – | – | – | –
2 | CCCCCCCCCCCCCCCC(=O)N[C@@H](CCC(=O)NCCOCCOCCC(=O)NCCOCCOCCC(=O)NCCCC[C@H](NC(=O)[C@H](CC(=O)O)NC(=O)[C@H](CO)NC(=O)[C@@H](NC(=O)[C@H](Cc1ccccc1)NC(=O)[C@@H](NC(=O)CNC(=O)[C@H](CCC(N)=O)NC(=O)C(C)(C)NC(=O)[C@@H](N)Cc1c[nH]cn1)[C@@H](C)O)[C@@H](C)O)C(=O)N[C@@H](CO)C(=O)N[C@@H](CCCCN)C(=O)N[C@@H](Cc1ccc(O)cc1)C(=O)N[C@@H](CC(C)C)C(=O)N[C@@H](CC(=O)O)C(=O)NC(C)(C)C(=O)N[C@@H](CCCNC(=N)N)C(=O)N[C@@H](CCCNC(=N)N)C(=O)N[C@@H](C)C(=O)N[C@@H](CCC(N)=O)C(=O)N[C@@H](CC(=O)O)C(=O)N[C@@H](Cc1ccccc1)C(=O)N[C@H](C(=O)N[C@@H](CCC(N)=O)C(=O)N[C@@H](Cc1c[nH]c2ccccc12)C(=O)N[C@@H](CC(C)C)C(=O)N[C@@H](CC(C)C)C(=O)N[C@@H](CC(=O)O)C(=O)NCC(=O)NCC(=O)N1CCC[C@H]1C(=O)N[C@@H](CO)C(=O)N[C@@H](CO)C(=O)NCC(=O)N[C@@H](C)C(=O)N1CCC[C@H]1C(=O)N1CCC[C@H]1C(=O)N1CCC[C@H]1C(=O)N[C@@H](CO)C(N)=O)C(C)C)C(=O)O [Compound 21] | no clinical adverse effect | ~12 | 4 to 6 | significantly decreased | significantly reduced the oral glucose tolerance | – | 0.23 | – | – | – | –
3 | CCCCCCCCCCCCCCCC(=O)N[C@@H](CCC(=O)NCCOCCOCCC(=O)NCCOCCOCCC(=O)NCCCC[C@H](NC(=O)[C@H](CC(=O)O)NC(=O)[C@H](CO)NC(=O)[C@@H](NC(=O)[C@H](Cc1ccccc1)NC(=O)[C@@H](NC(=O)CNC(=O)[C@H](CCC(N)=O)NC(=O)[C@@H](CO)NC(=O)[C@@H](N)Cc1c[nH]cn1)[C@@H](C)O)[C@@H](C)O)C(=O)N[C@@H](CO)C(=O)N[C@@H](CCCCN)C(=O)N[C@@H](Cc1ccc(O)cc1)C(=O)N[C@@H](CC(C)C)C(=O)N[C@@H](CC(=O)O)C(=O)NC(C)(C)C(=O)N[C@@H](CCCNC(=N)N)C(=O)N[C@@H](CCCNC(=N)N)C(=O)N[C@@H](C)C(=O)N[C@@H](CCC(N)=O)C(=O)N[C@@H](CC(=O)O)C(=O)N[C@@H](Cc1ccccc1)C(=O)N[C@H](C(=O)N[C@@H](CCC(N)=O)C(=O)N[C@@H](Cc1c[nH]c2ccccc12)C(=O)N[C@@H](CC(C)C)C(=O)N[C@@H](CCSC)C(=O)N[C@@H](CC(N)=O)C(=O)N[C@H](C(=O)NCC(=O)NCC(=O)N1CCC[C@H]1C(=O)N[C@@H](CO)C(=O)N[C@@H](CO)C(=O)NCC(=O)N[C@@H](C)C(=O)N1CCC[C@H]1C(=O)N1CCC[C@H]1C(=O)N1CCC[C@H]1C(=O)N[C@@H](CO)C(N)=O)[C@@H](C)O)C(C)C)C(=O)O [Compound 7] | – | ~12 | 4 to 6 | significantly decreased | significantly reduced the oral glucose tolerance | – | – | about 20% | significantly lower | no clinical adverse effect | more than 12 hours
4 | CC(C)C[C@H](NC(=O)[C@H](CC(C)C)NC(=O)[C@H](Cc1c[nH]c2ccccc12)NC(=O)[C@H](CCC(N)=O)NC(=O)[C@@H](NC(=O)[C@H](Cc1ccccc1)NC(=O)[C@H](CC(=O)O)NC(=O)[C@H](CCC(N)=O)NC(=O)[C@H](C)NC(=O)[C@H](CCCNC(=N)N)NC(=O)[C@H](CCCNC(=N)N)NC(=O)[C@H](CCC(=O)O)NC(=O)[C@H](CC(=O)O)NC(=O)[C@H](CC(C)C)NC(=O)[C@H](Cc1ccc(O)cc1)NC(=O)[C@H](CCCCN)NC(=O)[C@H](CO)NC(=O)[C@H](CCCCNC(=O)CCOCCOCCNC(=O)CCOCCOCCNC(=O)CC[C@H](NC(=O)CCCCCCCCCCCCCCCCC(=O)O)C(=O)O)NC(=O)[C@H](CC(=O)O)NC(=O)[C@H](CO)NC(=O)[C@@H](NC(=O)[C@H](Cc1ccccc1)NC(=O)[C@@H](NC(=O)CNC(=O)[C@H](CCC(N)=O)NC(=O)C(C)(C)NC(=O)[C@@H](N)Cc1c[nH]cn1)[C@@H](C)O)[C@@H](C)O)C(C)C)C(=O)N[C@@H](CC(=O)O)C(=O)NCC(=O)NCC(=O)N1CCC[C@H]1C(=O)N[C@@H](CO)C(=O)N[C@@H](CO)C(=O)NCC(=O)N[C@@H](C)C(=O)N1CCC[C@H]1C(=O)N1CCC[C@H]1C(=O)N1CCC[C@H]1C(=O)N[C@@H](CO)C(N)=O [Compound 20] (H-H[Aib]QGTFTSDK([PEG2-PEG2-γGlu-C18 diacid])SKYLDERRAQDFVQWLLDGGPSSGAPPPS-NH2) | no clinical adverse effect | ~12 | 4 to 6 | significantly decreased | significantly reduced the oral glucose tolerance | – | 0.18 | – | – | – | –
5 | His-Aib-Gln-Gly-Thr-Phe-Thr-Ser-Asp-Lys(PEG2-PEG2-Glu-CO(CH2)14CH3)-Ser-Lys-Tyr-Leu-Asp-Glu-Arg-Arg-Ala-Gln-Asp-Phe-Val-Gln-Trp-Leu-Leu-Asp-Gly-Gly-Pro-Ser-Ser-Gly-Ala-Pro-Pro-Pro-Ser-NH2 [Compound 19] | – | – | – | significantly decreased | significantly reduced the oral glucose tolerance | – | 0.25 | – | – | – | –
6 | CCCCCCCCCCCCCCCC(=O)N[C@@H](CCC(=O)NCCOCCOCCC(=O)NCCOCCOCCC(=O)NCCCC[C@H](NC(=O)C(C)(C)NC(=O)[C@H](CC(=O)O)NC(=O)[C@H](CC(C)C)NC(=O)[C@H](Cc1ccc(O)cc1)NC(=O)[C@H](CCCCN)NC(=O)[C@H](CO)NC(=O)[C@H](Cc1ccc(O)cc1)NC(=O)[C@H](CC(=O)O)NC(=O)[C@H](CO)NC(=O)[C@@H](NC(=O)[C@H](Cc1ccccc1)NC(=O)[C@@H](NC(=O)CNC(=O)[C@H](CCC(N)=O)NC(=O)[C@@H](CO)NC(=O)[C@@H](N)Cc1c[nH]cn1)[C@@H](C)O)[C@@H](C)O)C(=O)N[C@@H](CCCNC(=N)N)C(=O)N[C@@H](C)C(=O)N[C@@H](CCC(N)=O)C(=O)N[C@@H](CC(=O)O)C(=O)N[C@@H](Cc1ccccc1)C(=O)N[C@H](C(=O)N[C@@H](CCC(N)=O)C(=O)N[C@@H](Cc1c[nH]c2ccccc12)C(=O)N[C@@H](CC(C)C)C(=O)N[C@@H](CCSC)C(=O)N[C@@H](CC(N)=O)C(=O)N[C@H](C(=O)NCC(=O)NCC(=O)N1CCC[C@H]1C(=O)N[C@@H](CO)C(=O)N[C@@H](CO)C(=O)NCC(=O)N[C@@H](C)C(=O)N1CCC[C@H]1C(=O)N1CCC[C@H]1C(=O)N1CCC[C@H]1C(=O)N[C@@H](CO)C(N)=O)[C@@H](C)O)C(C)C)C(=O)O [Compound 13] | – | – | – | – | – | – | 2.8 | – | – | – | –
